In patent US10189841B2, “Purinones as ubiquitin-specific protease 1 inhibitors” (Forma Therapeutics, Inc., priority 2015, dated 2019):

biological target: USP1 (construct USP1 (I-785, GG670, 671AA)/UAF1 (I-677)-Flag) (Homo sapiens (Human), UniProt O94782, G670A/G671A); assay: Ubiquitin-Rhodamine 110 assay for USP1 activity; type: biochemical; conditions: USP1/UAF1 25 pM, Ub-Rh110 25 nM, 30 min preincubation
Method in brief: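 Ub-Rh110 (25 nM, ≪Km) cleavage read at ex 485/em 535 in Tris pH 8.0, CaCl2, GSH, Prionex, Triton X-100. The screen used 10 µM compound, 100 pM USP1/UAF1 and 45 min at RT.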

Chain of USP1 (construct USP1 (I-785, GG670, 671AA)/UAF1 (I-677)-Flag) (O94782 whole entry G670A/G671A): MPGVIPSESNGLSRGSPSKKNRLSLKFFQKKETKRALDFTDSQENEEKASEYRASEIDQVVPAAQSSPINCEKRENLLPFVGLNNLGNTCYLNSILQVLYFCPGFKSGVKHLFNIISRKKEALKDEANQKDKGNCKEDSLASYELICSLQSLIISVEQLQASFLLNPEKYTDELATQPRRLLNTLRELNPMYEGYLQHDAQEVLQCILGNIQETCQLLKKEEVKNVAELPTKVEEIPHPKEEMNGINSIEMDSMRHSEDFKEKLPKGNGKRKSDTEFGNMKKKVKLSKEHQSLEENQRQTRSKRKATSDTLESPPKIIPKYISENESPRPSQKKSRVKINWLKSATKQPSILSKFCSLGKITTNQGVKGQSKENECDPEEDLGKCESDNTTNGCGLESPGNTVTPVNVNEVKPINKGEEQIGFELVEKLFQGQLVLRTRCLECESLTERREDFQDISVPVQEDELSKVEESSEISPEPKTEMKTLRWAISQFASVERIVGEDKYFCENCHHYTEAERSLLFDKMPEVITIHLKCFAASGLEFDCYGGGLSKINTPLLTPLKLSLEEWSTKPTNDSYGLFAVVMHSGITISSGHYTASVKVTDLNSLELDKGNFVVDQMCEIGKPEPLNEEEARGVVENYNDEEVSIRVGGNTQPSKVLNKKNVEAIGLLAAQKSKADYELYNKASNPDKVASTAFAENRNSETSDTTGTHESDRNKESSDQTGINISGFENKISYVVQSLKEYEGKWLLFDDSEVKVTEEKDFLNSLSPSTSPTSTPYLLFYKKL
Chain of USP1 (construct USP1 (I-785, GG670, 671AA)/UAF1 (I-677)-Flag) (Q8TAF3 whole entry partner): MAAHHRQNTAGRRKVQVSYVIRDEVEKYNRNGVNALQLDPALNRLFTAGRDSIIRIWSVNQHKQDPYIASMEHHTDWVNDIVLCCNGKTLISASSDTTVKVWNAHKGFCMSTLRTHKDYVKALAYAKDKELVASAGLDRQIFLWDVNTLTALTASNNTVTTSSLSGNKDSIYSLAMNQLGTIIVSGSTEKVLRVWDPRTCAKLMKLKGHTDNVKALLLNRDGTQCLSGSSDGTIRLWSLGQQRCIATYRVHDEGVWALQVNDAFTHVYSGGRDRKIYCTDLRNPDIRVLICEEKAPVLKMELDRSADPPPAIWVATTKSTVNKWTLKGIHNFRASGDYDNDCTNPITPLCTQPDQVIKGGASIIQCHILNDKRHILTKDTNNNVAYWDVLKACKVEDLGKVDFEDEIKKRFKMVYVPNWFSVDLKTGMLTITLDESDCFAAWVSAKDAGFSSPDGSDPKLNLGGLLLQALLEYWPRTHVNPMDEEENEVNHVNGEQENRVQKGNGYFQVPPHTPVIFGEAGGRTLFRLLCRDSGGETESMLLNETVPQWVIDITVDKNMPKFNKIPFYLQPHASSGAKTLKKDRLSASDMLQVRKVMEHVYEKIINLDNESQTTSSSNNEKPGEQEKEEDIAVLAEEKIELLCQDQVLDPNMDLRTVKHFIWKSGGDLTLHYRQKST

| Structure (SMILES) | IC50 [nM] |
| --- | --- |
| CC(C)c1ccccc1-c1ncc2c(n1)n(Cc1ccc(NS(=O)(=O)c3nccn3C)cc1)c(=O)n2C [Compound I-454, N-(4-((2-(2-isopropylphenyl)-7-methyl-8-oxo-7,8-dihydro-9H-purin-9-yl)methyl)phenyl)-1-methyl-1H-imidazole-2-sulfonamide] | 200 to 2000 |
| Cc1nc(S(=O)(=O)Nc2ccc(Cn3c(=O)n(C)c4cnc(-c5ccccc5C(C)C)nc43)cc2)cn1C [Compound I-455, N-(4-((2-(2-isopropylphenyl)-7-methyl-8-oxo-7,8-dihydro-9H-purin-9-yl)methyl)phenyl)-1,2-dimethyl-lH-imidazole-4-sulfonamide] | > 2000 |
| CC(C)c1ccccc1-c1ncc2c(n1)n(Cc1ccc(N(C)S(=O)(=O)c3ccn(C)n3)cc1)c(=O)n2C [Compound I-456, N-(4-((2-(2-isopropylphenyl)-7-methyl-8-oxo-7,8-dihydro-9H-purin-9-yl)methyl)phenyl)-N,1-dimethyl-1H-pyrazole-3-sulfonamide] | 50 to 200 |
| CC(C)c1ccccc1-c1ncc2c(n1)n(Cc1ccc(N(C)S(=O)(=O)c3nccn3C)cc1)c(=O)n2C [Compound I-457, N-(4-((2-(2-isopropylphenyl)-7-methyl-8-oxo-7,8-dihydro-9H-purin-9-yl)methyl)phenyl)-N,1-dimethyl-1H-imidazole-2-sulfonamide] | 50 to 200 |
| Cc1nc(S(=O)(=O)N(C)c2ccc(Cn3c(=O)n(C)c4cnc(-c5ccccc5C(C)C)nc43)cc2)cn1C [Compound I-458, N-(4-((2-(2-isopropylphenyl)-7-methyl-8-oxo-7,8-dihydro-9H-purin-9-yl)methyl)phenyl)-N,1,2-trimethyl-1H-imidazole-4-sulfonamide] | 200 to 2000 |
| CC(C)c1ccccc1-c1ncc2c(n1)n(Cc1ccc(N(C)S(C)(=O)=O)cc1)c(=O)n2C [Compound I-459, N-(4-((2-(2-isopropylphenyl)-7-methyl-8-oxo-7,8-dihydro-9H-purin-9-yl)methyl)phenyl)-N-methylmethanesulfonamide] | 200 to 2000 |
| CC(C)c1ccccc1-c1ncc2[nH]c(=O)n(CC3(F)CCN(S(=O)(=O)C4CC4)CC3)c2n1 [Compound I-460, 9-((1-(cyclopropylsulfonyl)-4-fluoropiperidin-4-yl)methyl)-2-(2-isopropylphenyl)-7,9-dihydro-8H-purin-8-one] | 200 to 2000 |
| CC(C)c1ccccc1-c1ncc2[nH]c(=O)n(CC3CCN(S(=O)(=O)C4CC4)CC3)c2n1 [Compound I-461, 9-((1-(cyclopropylsulfonyl)piperidin-4-yl)methyl)-2-(2-isopropylphenyl)-7,9-dihydro-8H-purin-8-one] | 50 to 200 |
| CC(C)C(=O)N1CCC(Cn2c(=O)n(C)c3cnc(-c4ccccc4C(C)C)nc32)CC1 [Compound I-462, 9-((1-isobutyrylpiperidin-4-yl)methyl)-2-(2-isopropylphenyl)-7-methyl-7,9-dihydro-8H-purin-8-one] | > 2000 |
| CC(=O)N1CCC(c2ccn(-c3ccc(Cn4c(=O)[nH]c5cnc(-c6ccccc6C(C)C)nc54)cc3)n2)CC1 [Compound I-463, 9-(4-(3-(1-acetylpiperidin-4-yl)-1H-pyrazol-1-yl)benzyl)-2-(2-isopropylphenyl)-7,9-dihydro-8H-purin-8-one] | < 50 |
| CC(=O)N1CCC(c2ccn(-c3ccc(Cn4c(=O)[nH]c5cnc(-c6cccc(F)c6C(C)C)nc54)cc3)n2)CC1 [Compound I-464, 9-(4-(3-(1-acetylpiperidin-4-yl)-1H-pyrazol-1-yl)benzyl)-2-(3-fluoro-2-isopropylphenyl)-7,9-dihydro-8H-purin-8-one] | 50 to 200 |
| CC(=O)N1CCC(c2ccn(-c3ccc(Cn4c(=O)[nH]c5cnc(-c6cccnc6C(C)C)nc54)cc3)n2)CC1 [Compound I-465, 9-(4-(3-(1-acetylpiperidin-4-yl)-1H-pyrazol-1-yl)benzyl)-2-(2-isopropylpyridin-3-yl)-7,9-dihydro-8H-purin-8-one] | 200 to 2000 |
| CC(=O)N1CCC(c2ccn(-c3ccc(Cn4c(=O)[nH]c5cnc(-c6cccnc6OCC(F)(F)F)nc54)cc3)n2)CC1 [Compound I-466, 9-(4-(3-(1-acetylpiperidin-4-yl)-1H-pyrazol-1-yl)benzyl)-2-(2-(2,2,2-trifluoroethoxy)pyridin-3-yl)-7,9-dihydro-8H-purin-8-one] | 200 to 2000 |
| CC(=O)N1CCC(c2ccn(-c3ccc(Cn4c(=O)[nH]c5cnc(-c6ccccc6C(C)C)nc54)cc3)n2)C1 (stereo not drawn) [Compound I-467, 9-(4-(3-(1-acetylpyrrolidin-3-yl)-1H-pyrazol-1-yl)benzyl)-2-(2-isopropylphenyl)-7,9-dihydro-8H-purin-8-one] | 50 to 200 |
| CC(=O)N1CCCC(c2ccn(-c3ccc(Cn4c(=O)[nH]c5cnc(-c6ccccc6C(C)C)nc54)cc3)n2)C1 (stereo not drawn) [Compound I-468, 9-(4-(3-(1-acetylpiperidin-3-yl)-1H-pyrazol-1-yl)benzyl)-2-(2-isopropylphenyl)-7,9-dihydro-8H-purin-8-one] | < 50 |
| Cc1cc(C(=O)Nc2ccc(Cn3c(=O)n(C)c4cnc(-c5ccccc5C(C)C)nc43)cc2)n(C)n1 [Compound I-469, N-(4-((2-(2-isopropylphenyl)-7-methyl-8-oxo-7,8-dihydro-9H-purin-9-yl)methyl)phenyl)-1,3-dimethyl-1H-pyrazole-5-carboxamide] | 200 to 2000 |
| Cc1cc(C(=O)N(C)c2ccc(Cn3c(=O)n(C)c4cnc(-c5ccccc5C(C)C)nc43)cc2)n[nH]1 [Compound I-470, N-(4-((2-(2-isopropylphenyl)-7-methyl-8-oxo-7,8-dihydro-9H-purin-9-yl)methyl)phenyl)-N,5-dimethyl-1H-pyrazole-3-carboxamide] | > 2000 |
| Cc1cc(C(=O)N(C)c2ccc(Cn3c(=O)n(C)c4cnc(-c5ccccc5C(C)C)nc43)cc2)n(C)n1 [Compound I-471, N-(4-((2-(2-isopropylphenyl)-7-methyl-8-oxo-7,8-dihydro-9H-purin-9-yl)methyl)phenyl)-N,1,3-trimethyl-1H-pyrazole-5-carboxamide] | > 2000 |
| CC(=O)N1CCC(c2cn(C)c(-c3ccc(Cn4c(=O)[nH]c5cnc(-c6ccccc6C(C)C)nc54)cc3)n2)CC1 [Compound I-472, 9-(4-(4-(1-acetylpiperidin-4-yl)-1-methyl-1H-imidazol-2-yl)benzyl)-2-(2-isopropylphenyl)-7,9-dihydro-8H-purin-8-one] | < 50 |
| CC(=O)N1CCC(c2cnc(-c3ccc(Cn4c(=O)[nH]c5cnc(-c6ccccc6C(C)C)nc54)cc3)n2C)CC1 [Compound I-473, 9-(4-(5-(1-acetylpiperidin-4-yl)-1-methyl-lH-imidazol-2-yl)benzyl)-2-(2-isopropylphenyl)-7,9-dihydro-8H-purin-8-one] | < 50 |
| CC(=O)N1CCC(c2ccn(-c3ccc(Cn4c(=O)[nH]c5cnc(-c6c(F)cccc6C(C)C)nc54)cc3)n2)CC1 [Compound I-474, 9-(4-(3-(1-acetylpiperidin-4-yl)-1H-pyrazol-1-yl)benzyl)-2-(2-fluoro-6-isopropylphenyl)-7,9-dihydro-8H-purin-8-one] | < 50 |
| CC(C)C(=O)N1CCC(F)(Cn2c(=O)[nH]c3cnc(-c4ccccc4C(C)C)nc32)CC1 [Compound I-475, 9-((4-fluoro-1-isobutyrylpiperidin-4-yl)methyl)-2-(2-isopropylphenyl)-7,9-dihydro-8H-purin-8-one] | > 2000 |
| CC(=O)N1CC(n2cc(C(F)(F)F)nc2-c2ccc(Cn3c(=O)[nH]c4cnc(-c5ccccc5C(C)C)nc43)cc2)C1 [Compound I-476, 9-(4-(1-(1-acetylazetidin-3-yl)-4-(trifluoromethyl)-1H-imidazol-2-yl)benzyl)-2-(2-isopropylphenyl)-7,9-dihydro-8H-purin-8-one] | < 50 |
| CC(=O)N1CC(n2cc(C(F)(F)F)nc2-c2ccc(Cn3c(=O)[nH]c4cnc(-c5cccnc5C(C)C)nc43)cc2)C1 [Compound I-477, 9-(4-(1-(1-acetylazetidin-3-yl)-4-(trifluoromethyl)-1H-imidazol-2-yl)benzyl)-2-(2-isopropylpyridin-3-yl)-7,9-dihydro-8H-purin-8-one] | < 50 |
| CC(C)NC(=O)N1CCC(Cn2c(=O)n(C)c3cnc(-c4ccccc4C(C)C)nc32)CC1 [Compound I-478, N-isopropyl-4-((2-(2-isopropylphenyl)-7-methyl-8-oxo-7,8-dihydro-9H-purin-9-yl)methyl)piperidine-1-carboxamide] | > 2000 |
| CC(C)c1ccccc1-c1ncc2c(n1)n(CC1CCN(C(=O)NC3CC3)CC1)c(=O)n2C [Compound I-479, N-cyclopropyl-4-((2-(2-isopropylphenyl)-7-methyl-8-oxo-7,8-dihydro-9H-purin-9-yl)methyl)piperidine-1-carboxamide] | > 2000 |
| CNC(=O)N1CCC(c2ccn(-c3ccc(Cn4c(=O)[nH]c5cnc(-c6ccccc6C(C)C)nc54)cc3)n2)CC1 [Compound I-480, 4-(1-(4-((2-(2-isopropylphenyl)-8-oxo-7,8-dihydro-9H-purin-9-yl)methyl)phenyl)-1H-pyrazol-3-yl)-N-methylpiperidine-1-carboxamide] | < 50 |
| CC(C)NC(=O)Nc1ccc(Cn2c(=O)n(C)c3cnc(-c4ccccc4C(C)C)nc32)cc1 [Compound I-481, 1-isopropyl-3-(4-((2-(2-isopropylphenyl)-7-methyl-8-oxo-7,8-dihydro-9H-purin-9-yl)methyl)phenyl)urea] | 50 to 200 |
| COCCNC(=O)Nc1ccc(Cn2c(=O)n(C)c3cnc(-c4ccccc4C(C)C)nc32)cc1 [Compound I-482, 1-(4-((2-(2-isopropylphenyl)-7-methyl-8-oxo-7,8-dihydro-9H-purin-9-yl)methyl)phenyl)-3-(2-methoxyethyl)urea] | 200 to 2000 |
| CC(C)c1ccccc1-c1ncc2c(n1)n(Cc1ccc(NC(=O)NC3CC3)cc1)c(=O)n2C [Compound I-483, 1-cyclopropyl-3-(4-((2-(2-isopropylphenyl)-7-methyl-8-oxo-7,8-dihydro-9H-purin-9-yl)methyl)phenyl)urea] | 200 to 2000 |
